From paper PMC4279163, “Inhibitory Effect of b-AP15 on the 20S Proteasome” (Biomolecules, 2014)
Where “and” joins values, the source holds several entries; their conditions need not be identical. Equal values may be shown once. Read-outs that look alike come from different tables or passages of the source.

Assays:
20S proteasome = tested on: 20S proteasome; design: method as in PMID 22057347; settings: 50 μM; SDS as activator; cited from earlier work
[1] = tested on: proteasome of HeLa Ub^G76V-GFP cells; experiment: Cell-based proteasome inhibition assay (Ub-GFP accumulation); settings: 24 h
Procedure: It was shown that b-AP15 at 50 μM inhibited the deubiquitination by the 19S regulatory particle, but not the 20S proteasome in in vitro enzymatic assays. […] HeLa Ub^G76V-GFP cells express ubiquitin-green fluorescent protein (Ub-GFP), which is efficiently degraded by the proteasome. HeLa Ub^G76V-GFP cells accumulate Ub-GFP in the presence of proteasome inhibitors. […] Some of the HeLa Ub^G76V-GFP cells turned green in the presence of b-AP15 at a concentration as low as 0.32 μM (Figure 1b). […] Ub-YFP was accumulated in the MelJuSo Ub-YFP cells at a b-AP15 concentration as low as 0.7 μM [12].
Figure 1 b-AP15 inhibited the proteasome of HeLa ubiquitin-green fluorescent protein (Ub^G76V-GFP) cells. HeLa Ub^G76V-GFP cells were treated with b-AP15 at 0.95 μM (a,d); 0.32 μM (b,e), or no b-AP15 (c,f) for 24 h, where (a), (b), and (c) are fluorescence microscopic images; (d), (e), and (f) are regular phase contrast images of the cells.
HeLa Ub^G76V-GFP cells (kindly provided by Nico P. Dantuma, Karolinska Institutet, Stockholm, Sweden) were cultured in DMEM medium supplemented with 10% fetal calf serum, 100 units/mL of penicillin, and 100 µg/mL of streptomycin. […] The green fluorescence emitted by the treated HeLa Ub^G76V-GFP cells was then observed and documented with a Nikon fluorescent microscopic system.

[2] = target: T1, 20S proteasome, chymotrypsin-like activity (Homo sapiens, UniProt P28074); experiment: HPLC analysis of the substrates and products of the 20S proteasome; format: biochemical; settings: 0, 2.4, 9.6, 38 μM; PA28 11 μg/mL; 6 h, room temperature
Excerpt: b-AP15 is highly chromogenic with a conjugated π-bonding system that could potentially be quenching the emitted fluorescence from proteasome cleavage of the substrate. To eliminate the possible effect of quenching by b-AP15, we used HPLC to analyze the substrate and cleaved products, AMC (P1) and Suc-LLVY (P2), after the enzyme reactions. The ratio of P/S was used to express the relative amount of reaction product formation under the assay conditions, where P represents the products and S represents the substrate Suc-LLVY-AMC (S). […]
Figure 3 Inhibition of the chymotrypsin-like activity of the 20S proteasome. The reaction products of the 20S proteasome, AMC (P1), Suc-LLVY (P2), and substrate Suc-LLVY-AMC (S) were analyzed by HPLC. P1/S and P2/S are the ratios of the reaction products and the substrate calculated from the area under the curve of the HPLC profiles.
b-AP15 at various concentrations (0, 2.4, 9.6, and 38 μM) was incubated with the 20S proteasome (4.3 nM), substrate (Suc-LLVY-AMC, 0.2 mM), and PA28 (11 μg/mL) at room temperature for 6 h. […] The reaction products, AMC (P1), Suc-LLVY (P2), and substrate Suc-LLVY-AMC (S) in the filtrate were analyzed using reverse phase HPLC with a gradient of increasing acetonitrile/water ratio. […]

[3] = target: T2, human 20S proteasome, caspase-like activity (Homo sapiens, UniProt P28072); experiment: 20S proteasome assay, caspase-like activity ((Z)-LLEbNA); format: biochemical
T2 construct: purchased Calbiochem
Procedure: (§1) Proteasome assay kits were purchased from Calbiochem, San Diego, CA. The effect of the proteasome inhibitors on the 20S proteasome activities was assayed following the protocols provided by the manufacturer. The major components of the assay mixture are the human 20S proteasome, fluorogenic peptide substrates and a proteasome activator. […] The concentrations of the proteasome activators used, PA28, PALAME, and SDS were 2 μg/mL, 19 μM, and 0.03% (V/V), respectively.
(§2) The trypsin-like and caspase-like activities of the 20S proteasome were determined using the fluorogenic substrates Bz-VGR-AMC (20 μM) and (Z)-LLEbNA (20 μM), respectively. Fluorescence generated from the proteolytic reaction in the presence of various concentrations of the inhibitors was measured using a BioTek fluorometer. […] The value of IC50 is expressed as mean ± standard deviation from three independent assays using CalcuSyn (Biosoft, Cambridge, UK).

multiple myeloma = tested on: multiple myeloma; design: method as in PMID 24319254; settings: human xenograft mouse model; cited from earlier work
[4] = target: T1, 20S proteasome, chymotrypsin-like activity; experiment: 20S proteasome assay, chymotrypsin-like activity (Suc-LLVY-AMC); format: biochemical; design: purchased Calbiochem; settings: for IC50: Suc-LLVY-AMC 20 μM, mean ± SD, three assays
Procedure: as §1, §2

[5] = tested on: MelJuSo Ub-YFP reporter cell line; design: method as in PMID 22057347; settings: MelJuSo Ub-YFP cells; cited from earlier work
[6] = target: T3, human 19S regulatory particles (Homo sapiens, UniProt P54578+Q9Y5K5); experiment: 19S regulatory particle de-ubiquitinase assay (ub-AMC); format: biochemical; settings: 19S 2.9 nM; ub-AMC 1 μM; read-out: IC50, deubiquitinase activities of the 19S regulatory particles
T3 construct: purchased Boston Biochem
Procedure: Figure 2 (a) b-AP15 inhibited the 19S regulatory particles. The activity of human 19S regulatory particles (Boston Biochem) was determined in the presence of the fluorogenic substrate ub-AMC and various concentrations of b-AP15 as indicated using a reported assay condition. RFU denotes the relative fluorescence units of the reactions; (b) Inhibitory effect of b-AP15 on the chymotrypsin-like activity of the 20S proteasome. BG in the figure denotes background.
The de-ubiquitinase activities of the human 19S regulatory particles (proteasome) (Boston Biochem, Boston, MA, USA) were determined in the presence of the fluorogenic substrate ub-AMC (Boston Biochem) and various concentrations of b-AP15 using the reported assay condition. The reaction buffer used contained 25 mM HEPES, 50 mM NaCl, 10 mM MgCl2, 2 mM ATP, and 1 mM DDT. The human 19S regulatory particles and the substrate ub-AMC were used at a final concentration of 2.9 nM, and 1 μM, respectively. The proteolysis reaction rate was monitored using a BioTek fluorometer (Winooski, VT, USA).

19S regulatory particle = tested on: 19S regulatory particle; design: method as in PMID 22057347; settings: 50 μM; cited from earlier work
[7] = target: T4, human 20S proteasome, trypsin-like activity (Homo sapiens, UniProt Q99436); experiment: 20S proteasome assay, trypsin-like activity (Bz-VGR-AMC); format: biochemical; settings: activator PA28; Bz-VGR-AMC 20 μM; read-out: IC50, trypsin-like activity of PA28-activated 20S proteasome
T4 construct: purchased Calbiochem
Procedure: as §1, §2

C=CC(=O)N1C/C(=C\c2ccc([N+](=O)[O-])cc2)C(=O)/C(=C/c2ccc([N+](=O)[O-])cc2)C1 [b-AP15]
Inhibition of the 20S proteasome (20S proteasome): did not inhibit
Accumulation of Ub^G76V-GFP and/or GFP in cells ([1]; 0.95 μM): accumulation of Ub^G76V-GFP and/or GFP in majority of the cells
Lowest concentration at which some cells turned green ([1]; fluorescence microscopy): 0.32 µM
Formation of the two cleaved products AMC (P1) and Suc-LLVY (P2) by HPLC [2]: inhibited the formation of the two cleaved products in a dose dependent manner
IC50 ([3]; activator PA28, (Z)-LLEbNA 20 μM, read-out: IC50, caspase-like activity of PA28-activated 20S proteasome): > 48 µM
Effect on the caspase-like activity ([3]; up to 48 μM, PA28-activated): did not significantly affect
Anti-multiple myeloma activity (multiple myeloma): anti-multiple myeloma activity
inhibition at 48 µM ([4]; 48 μM, 0.03% SDS as activator, read-out: Inhibition of the chymotrypsin-like activity of the SDS-activated 20S proteasome): < 50%
IC50 ([4]; activator PA28 2 μg/mL, read-out: IC50, chymotrypsin-like activity of the 20S proteasome activated by PA28): 18.1 ± 3.22 µM
IC50 ([4]; activator PALAME 19 μM, read-out: IC50, chymotrypsin-like activity of the 20S proteasome activated by PALAME): 26 µM and 26.3 µM
IC50 ([4]; activator SDS 0.03%, read-out: IC50, chymotrypsin-like activity of the 20S proteasome activated by SDS): > 48 µM
Lowest concentration at which Ub-YFP was accumulated [5]: 0.7 µM
IC50 [6]: 15.2 µM
Inhibition of deubiquitination by the 19S regulatory particle (19S regulatory particle): inhibited
IC50 [7]: 40.6 ± 5.23 µM
